Measured values taken from US9458465B2, “Compositions and methods to modulate cell membrane resealing” (RUTGERS, THE STATE UNIVERSITY OF NEW JERSEY, priority 2007, dated 2016).

Experiments:
[1] = tested on: C2C12 cells expressing GFP-MG53; experiment: Repair of acute membrane damage: translocation to microelectrode injury site; assay type: cell-based, murine; conditions: for Membrane Repair (+Zn-HPT): 2 μM Zn-HPT; for Membrane Repair (−Zn-HPT): extracellular solution with nominal free zinc
Description: To follow the process of intracellular vesicle translocation associated with repair of acute membrane damage, GFP-MG53 fusion protein was expressed in C2C12 myoblast cells (FIG. 21a). […]
Cell culture—The C2C12 murine myoblast cell line used for all studies was purchased from the American Type Culture Collection (Manassas, Va.). Cells were grown in a humidified environment at 37° C. and 5% CO2 in DMEM medium for C2C12 or Ham's F12 medium for CHO cells supplemented with 10% fetal bovine serum, 100 units/ml penicillin and 100 ug/ml streptomycin. In order to induce myotube differentiation, C2C12 myoblasts were grown to confluence and the medium was switched to DMEM containing 2% horse serum, penicillin (100 U/ml), streptomycin (100 μg/ml). For transient transfections, C2C12 myoblasts or CHO cells were plated at 70% confluence in glass-bottom dishes. After 24 hours, cells were transfected with plasmids described above using GeneJammer reagent (Stratagene). Cells were visualized by live cell confocal imaging at 24-48 hours after transfection or at times indicated for individual experiments. In some experiments, C2C12 myoblasts were allowed to differentiate into myotubes for the indicated time before observation.
Live cell imaging—To monitor intracellular trafficking of GFP-MG53 either CHO or C2C12 cells were cultured in glass-bottom dishes (Bioptechs Inc.) and transfected with the plasmids described above. Fluorescence images (512×512) were captured at 3.18 s/frame using a BioRad 2100 Radiance laser scanning confocal microscope with a 63×1.3NA oil immersion objective.

[2] = tested on: FDB muscle fibers from wild type (WT) mice; experiment: FM1-43 dye entry after UV-laser damage, wild type FDB muscle fibers; assay type: cell-based
Description: (§1) FIG. 20. Protective effect of zinc on membrane repair is lost in mg53−/− skeletal muscle. (a) individual flexor digitorum brevis (FDB) muscle fibers were isolated from wild type (WT) mice (3-6 months). A strong UV laser was applied to the FDB fiber that caused local damage to the muscle (arrow). Entry of FM1-43 fluorescent dye (2.5 μM) was used as an indicator for the measurement of membrane repair capacity. The images were taken 200 s following UV irradiation (control). […] (d) Schematic diagram of zinc-binding motifs in MG53. The amino-terminus of MG53 contains two putative zinc-binding motifs: one located at the RING motif (a.a. 1-56, human cDNA), and the other located at the B-box motif (a.a. 86-117, human cDNA). The specific amino acids that participate in zinc-binding are indicated.
as §1, with “Protective” for “FIG. 20. Protective”, “To access membrane repair capacity,” for “(a)”, “months) (FIG. 20a).” for “months).”, “Summary data for panel a and b (FIG. 20c). […]” for “(d)”, “indicated (FIG. 20d).” for “indicated.”

[3] = tested on: FDB muscle fibers from mg53−/− mice; experiment: FM1-43 dye entry after UV-laser damage, mg53−/− FDB muscle fibers; assay type: cell-based
Description: as §1
as §1, with “Protective” for “FIG. 20. Protective”, “To access membrane repair capacity,” for “(a)”, “months) (FIG. 20a).” for “months).”, “Summary data for panel a and b (FIG. 20c). […]” for “(d)”, “indicated (FIG. 20d).” for “indicated.”

HEK293 cells = experiment: LDH release after glass microbead damage, HEK293; assay type: cell-based, human
Description: Recombinant MG53 can protect kidney cells from mechanical cell membrane damage. HEK293 cells (8×10^4) were treated with glass microbeads to induce mechanical damage (FIG. 37). Different does of recombinant human MG53 or vehicle control was applied to the samples when glass beads were added to the media. Cells were rotated on an orbital shaker and then the supernatant was analyzed for LDH levels.
(§2) Externally applied recombinant MG53 requires phosphatidylserine (PS) binding to reseal damaged membranes. HEK293 cells were treated with recombinant human MG53 or vehicle and them damaged by shaking in the presence of glass microbeads (black bars) (FIG. 40). Membrane damage is measured by LDH release from cells that is recorded by colormetric assay recorded at 488 nm. […] Thus, MG53 must be able to bind exposed PS on damaged cells in order to facilitate membrane repair. * p<0.05
as §2, with “HEK293” for “Externally applied recombinant MG53 requires phosphatidylserine (PS) binding to reseal damaged membranes. HEK293”, “41).” for “40).”

mg53−/− myotubes = experiment: Membrane repair in transfected mg53−/− myotubes; assay type: cell-based, mice; conditions: transfected mg53−/− myotubes; UV injury
Text: The entry of FM4-64, a red-shifted variant of FM1-43, was used as an index of membrane repair capacity in mg53−/− myotubes transfected with GFP-MG53 and GFP-C242A. Following UV-bleaching of the green fluorescence, rapid translocation of GFP-MG53 took place at the injury site, whereas GFP-C242A remained static due to its defective oligomerization properties (FIG. 16E, 17A).
Similar defects with GFP-C29L were also observed in C2C12 myotubes (FIG. 18e, middle).

[4] = C2C12 cells, listed as GFP-C105S
[5] = C2C12 cells, listed as GFP-C29L/C105S

Molecule: O[C@H](CS)[C@H](O)CS (racemic) [DTT, dithiothreitol, reference compound]
- translocation of GFP-MG53 toward the injury site ([1]; reduced extracellular environment (+DTT), 5 mM DTT): largely disrupted
- membrane resealing (entry of FM-143 dye) ([2]; isolated muscle fibers, DTT in the extracellular solution): prevents membrane resealing

Molecule: O=C([O-])CN(CCN(CC(=O)[O-])CC(=O)[O-])CC(=O)[O-].[Ca+2].[Na+].[Na+] [Ca-EDTA]
- membrane repair capacity (FM1-43 dye entry) ([2]; WT muscle, Ca-EDTA 100 μM): compromised membrane repair capacity
- membrane repair capacity ([3]; mg53−/− muscle, Ca-EDTA): did not produce any significant changes in membrane repair capacity

Molecule: c1ccc(CN(CCN(Cc2ccccn2)Cc2ccccn2)Cc2ccccn2)nc1 [TPEN, N,N,N,N-tetrakis(2-pyridyl-methyl)ethylenediamine]
- translocation of GFP-MG53 containing vesicles toward the mechanical injury site ([1]; 20 μM TPEN in the extracellular solution): completely abolished the translocation
- membrane repair capacity (FM1-43 dye entry) ([2]; WT fibers, 40 μM TPEN): compromised membrane repair capacity
- membrane repair capacity (FM1-43 dye entry) ([3]; mg53−/− fibers, +TPEN): did not produce more entry of FM1-43 dye

Molecule: Thimerosal [reference compound]
- translocation of GFP-MG53 to injury sites ([1]; oxidizing agent Thimerosal in the extracellular solution): increased translocation

Molecule: phosphatidylserine [phosphatidylserine (PS), reference compound]
- effect on MG53 resealing of plasma membrane (HEK293 cells; simultaneous treatment with recombinant human MG53): can prevent resealing of plasma membrane

B1: Annexin V: a phosphatidylserine (PS) binding protein (protein, UniProt P08758 2-320, looked up)
Annexin A5: AQVLRGTVTDFPGFDERADAETLRKAMKGLGTDEESILTLLTSRSNAQRQEISAAFKTLFGRDLLDDLKSELTGKFEKLIVALMKPSRLYDAYELKHALKGAGTNEKVLTEIIASRTPEELRAIKQVYEEEYGSSLEDDVVGDTSGYYQRMLVVLLQANRDPDAGIDEAQVEQDAQALFQAGELKWGTDEEKFITIFGTRSVSHLRKVFDKYMTISGFQIEETIDRETSGNLEQLLLAVVKSIRSIPAYLAETLYYAMKGAGTDDHTLIRVMVSRSEIDLFNIRKEFRKNFATSLYSMIKGDTSGDYKKALLLLCGEDD
- effect on MG53 resealing of plasma membrane (HEK293 cells; excess (5:1), simultaneous with recombinant human MG53): can prevent resealing of plasma membrane

B2: C242A: MG53 mutant, conserved cysteine 242 mutated into alanine (protein)
chain: MSAAPGLLRQELSCPLCLQLFDAPVTAECGHSFCRACLIRVAGEPAADGTVACPCCQAPTRPQALSTNLQLSRLVEGLAQVPQGHCEEHLDPLSIYCEQDRTLVCGVCASLGSHRGHRLLPAAEAQARLKTQLPQQKMQLQEACMRKEKTVAVLEHQLVEVEETVRQFRGAVGEQLGKMRMFLAALESSLDREAERVRGDAGVALRRELSSLNSYLEQLRQMEKVLEEVADKPQTEFLMKFALVTSRLQKILSESPPPARLDIQLPVISDDFKFQVWKKMFRALMPALEELTFDPSSAHPSLVVSSSGRRVECSDQKAPPAGEDTRQFDKAVAVVAQQLLSQGEHYWEVEVGDKPRWALGVMAADASRRGRLHAVPSQGLWLLGLRDGKILEAHVEAKEPRALRTPERPPARIGLYLSFADGVLAFYDASNPDVLTPIFSFHERLPGPVYPIFDVCWHDKGKNAQPLLLVGPEQEQA
modifications: left off: large carriers
notes: MG53 mutant, conserved cysteine 242 mutated into alanine
- translocation to injury site and membrane repair function of GFP fusion protein ([1]; C2C12 cells, acute membrane damage): completely disrupted its ability to facilitate the membrane repair process
- sarcolemmal membrane repair function ([2]; overexpression in adult wt muscle fibers, compared with GFP-MG53): inhibited sarcolemmal membrane repair function
- entry of FM4-64 (membrane repair capacity) (mg53−/− myotubes): not able to restore membrane integrity following injury

B3: C105S: MG53 single mutation of the B-box motif (protein)
chain: MSAAPGLLRQELSCPLCLQLFDAPVTAECGHSFCRACLIRVAGEPAADGTVACPCCQAPTRPQALSTNLQLSRLVEGLAQVPQGHCEEHLDPLSIYCEQDRTLVSGVCASLGSHRGHRLLPAAEAQARLKTQLPQQKMQLQEACMRKEKTVAVLEHQLVEVEETVRQFRGAVGEQLGKMRMFLAALESSLDREAERVRGDAGVALRRELSSLNSYLEQLRQMEKVLEEVADKPQTEFLMKFCLVTSRLQKILSESPPPARLDIQLPVISDDFKFQVWKKMFRALMPALEELTFDPSSAHPSLVVSSSGRRVECSDQKAPPAGEDTRQFDKAVAVVAQQLLSQGEHYWEVEVGDKPRWALGVMAADASRRGRLHAVPSQGLWLLGLRDGKILEAHVEAKEPRALRTPERPPARIGLYLSFADGVLAFYDASNPDVLTPIFSFHERLPGPVYPIFDVCWHDKGKNAQPLLLVGPEQEQA
modifications: left off: large carriers
notes: MG53 single mutation of the B-box motif
- Membrane Repair (+Zn-HPT) [1, 4]: partial rescue of the membrane repair capacity
- Membrane Repair (−Zn-HPT) [1, 4]: could not move to the acute injury site

B4: C29L/C105S: MG53 double mutant of RING motif (C29L) and B-box motif (C105S) (protein)
chain: MSAAPGLLRQELSCPLCLQLFDAPVTAELGHSFCRACLIRVAGEPAADGTVACPCCQAPTRPQALSTNLQLSRLVEGLAQVPQGHCEEHLDPLSIYCEQDRTLVSGVCASLGSHRGHRLLPAAEAQARLKTQLPQQKMQLQEACMRKEKTVAVLEHQLVEVEETVRQFRGAVGEQLGKMRMFLAALESSLDREAERVRGDAGVALRRELSSLNSYLEQLRQMEKVLEEVADKPQTEFLMKFCLVTSRLQKILSESPPPARLDIQLPVISDDFKFQVWKKMFRALMPALEELTFDPSSAHPSLVVSSSGRRVECSDQKAPPAGEDTRQFDKAVAVVAQQLLSQGEHYWEVEVGDKPRWALGVMAADASRRGRLHAVPSQGLWLLGLRDGKILEAHVEAKEPRALRTPERPPARIGLYLSFADGVLAFYDASNPDVLTPIFSFHERLPGPVYPIFDVCWHDKGKNAQPLLLVGPEQEQA
modifications: left off: large carriers
- Membrane Repair (+Zn-HPT) [1, 5]: completely defective in repair of acute membrane damage
- Membrane Repair (−Zn-HPT) [1, 5]: completely defective in repair of acute membrane damage
